Experimental data: PubChem BioAssay (NCI)
Where “and” joins values, the source holds several entries; their conditions need not be identical. Equal values may be shown once.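 Grown in 96-well plates, cells were treated for 48 hours with each compound at five concentrations. Insufficient inhibition: endpoint recorded as highest concentration tested. Abbreviation: GI50, concentration required for 50% inhibition of growth. TGI: concentration producing complete growth inhibition.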

Assays:
Test in all cases: NCI anticancer screen, dose series, 48 h
[1] = system: MOLT-4 leukemia
[2] = system: HCT-15 colon
[3] = system: SW-620 colon
[4] = system: T-47D breast
[5] = system: HS 578T breast
[6] = system: CAKI-1 renal
[7] = system: RXF 393 renal
[8] = system: A549 NSCLC
[9] = system: DU-145 prostate
[10] = system: SF-295 CNS
[11] = system: MCF7 breast
[12] = system: 786-0 renal
[13] = system: DMS 114 small cell lung

CCSc1nc(N)c2c(-c3ccc(OC)c(OC)c3)c3c(nc2n1)CCCC3
TGI [1]: > 100 µM | TGI [2]: > 100 µM | TGI [3]: > 100 µM | TGI [4]: > 100 µM | TGI [5]: > 100 µM | TGI [6]: > 100 µM | TGI [7]: > 100 µM | TGI [8]: > 100 µM | TGI [9]: > 100 µM | TGI [10]: > 100 µM | TGI [11]: > 100 µM

C=CCc1cc(-c2cc(CC=C)c(O)c(CN(CCCl)CCCl)c2)cc(CN(CCCl)CCCl)c1O
TGI [1]: > 100 µM | TGI [2]: 38 µM | TGI [3]: 27.7 µM | TGI [4]: 24.8 µM | TGI [12]: 37.9 µM | TGI [5]: > 100 µM | TGI [6]: 34.6 µM | TGI [7]: 35.8 µM | TGI [8]: 45.3 µM | TGI [9]: 30.8 µM | TGI [10]: 38.7 µM | TGI [11]: 42.7 µM

CC(C)(C)NCc1cc(Nc2ccnc3cc(Cl)ccc23)cc(-c2ccc(Cl)cc2)c1O
TGI [1]: 4.55 µM | TGI [2]: 9.96 µM | TGI [3]: 5.3 µM | TGI [4]: 13.3 µM | TGI [12]: 3.98 µM | TGI [5]: 6.37 µM | TGI [6]: 10.6 µM | TGI [7]: 4.66 µM | TGI [8]: 20.6 µM | TGI [9]: 15 µM | TGI [10]: 6.23 µM | TGI [11]: 3.13 µM

O=C(O)CCCCCCC[C@@H]1S[C@H]1CCCCCCO
TGI [1]: > 100 µM | TGI [2]: > 100 µM | TGI [3]: > 100 µM | TGI [6]: > 100 µM | TGI [7]: > 100 µM | TGI [13]: > 100 µM | TGI [8]: > 100 µM | TGI [10]: > 100 µM | TGI [11]: > 100 µM

COC(=O)CCC(=O)CC(=O)C1=NS(=O)(=O)c2nc(S(N)(=O)=O)c(Cl)cc2N1
TGI [1]: > 100 µM | TGI [2]: > 100 µM | TGI [6]: > 100 µM | TGI [7]: > 100 µM | TGI [13]: > 100 µM | TGI [8]: > 100 µM | TGI [10]: > 100 µM

Nc1ccccc1CCCC(=O)O
TGI [1]: > 100 µM | TGI [2]: > 100 µM | TGI [3]: > 100 µM | TGI [4]: > 100 µM | TGI [12]: > 100 µM | TGI [5]: > 100 µM | TGI [6]: > 100 µM | TGI [7]: > 100 µM | TGI [8]: > 100 µM | TGI [9]: > 100 µM | TGI [10]: > 100 µM | TGI [11]: > 100 µM

COCc1nc2c(OC)cc(-c3nc4nc(N5CCN(C)CC5)ccc4[nH]3)c(OC)c2[nH]1
TGI [1]: > 100 µM | TGI [2]: > 100 µM | TGI [3]: > 100 µM | TGI [4]: > 100 µM | TGI [12]: > 100 µM | TGI [5]: > 100 µM | TGI [6]: > 100 µM | TGI [7]: > 100 µM | TGI [8]: > 100 µM | TGI [9]: > 100 µM | TGI [10]: > 100 µM | TGI [11]: > 100 µM

CC1C(=O)OC2CC[N+]3(CC(=O)c4ccc(Br)cc4)CC=C(COC(=O)C(C)(O)C1(C)O)C23 (centres undefined)
TGI [1]: > 375 µM | TGI [2]: > 375 µM | TGI [3]: > 375 µM | TGI [6]: > 375 µM | TGI [7]: > 375 µM | TGI [13]: > 375 µM | TGI [8]: > 375 µM | TGI [10]: > 375 µM | TGI [11]: > 375 µM

CN(C)c1ccc(/C=C2/SC(=S)NC2=O)cc1
TGI [1]: > 100 µM | TGI [2]: > 100 µM | TGI [3]: > 100 µM | TGI [4]: > 100 µM | TGI [12]: > 100 µM | TGI [5]: > 100 µM | TGI [6]: > 100 µM | TGI [7]: > 100 µM | TGI [8]: > 100 µM | TGI [9]: > 100 µM | TGI [10]: > 100 µM | TGI [11]: > 100 µM

S=C1SC(=Nc2ccccc2)C(=Nc2ccccc2)N1c1ccccc1
TGI [1]: > 100 µM | TGI [2]: > 100 µM | TGI [4]: > 100 µM | TGI [5]: > 100 µM | TGI [6]: > 100 µM | TGI [7]: > 100 µM | TGI [9]: > 100 µM | TGI [10]: > 100 µM | TGI [11]: > 100 µM

O=c1[nH]c(Nc2ccc(F)c(Cl)c2)nc2nc[nH]c12
TGI [1]: 39.5 µM | TGI [2]: > 100 µM | TGI [3]: > 100 µM | TGI [4]: > 100 µM | TGI [12]: > 100 µM | TGI [5]: > 100 µM | TGI [6]: > 100 µM | TGI [8]: > 100 µM | TGI [9]: > 100 µM | TGI [10]: > 100 µM | TGI [11]: > 100 µM

Cc1cc(NC(=S)Nc2ccccc2)c(NC(=S)Nc2ccccc2)cc1C
TGI [1]: > 60.1 µM | TGI [2]: > 100 µM | TGI [3]: > 100 µM | TGI [6]: > 89.6 µM | TGI [7]: > 80.8 µM | TGI [8]: > 100 µM | TGI [10]: 62.2 µM | TGI [11]: 98.6 µM

N#C[S-].[Nd+3].c1cnc2c(c1)ccc1cccnc12.c1cnc2c(c1)ccc1cccnc12.c1cnc2c(c1)ccc1cccnc12
TGI [1]: 6.64 µM | TGI [3]: 24.7 µM | TGI [12]: 11.8 µM | TGI [6]: 15.1 µM | GI50 [13]: 1.59 µM | TGI [13]: 4.67 µM | TGI [8]: 10.5 µM | TGI [10]: 0.991 µM

CC1=C(C)C(=O)O[C@@H]([C@](C)(O)[C@]2(O)CC[C@@]3(O)[C@@H]4C[C@H]5O[C@]56[C@@H](O)C=CC(=O)[C@]6(C)[C@H]4CC[C@]23C)C1
GI50 [1]: 0.0688 µM and 0.177 µM | GI50 [2]: 0.169 µM | TGI [2]: 2.87 µM and 3.02 µM | GI50 [3]: 0.266 µM and 0.0856 µM | TGI [3]: 0.787 µM and 0.574 µM | GI50 [7]: 0.21 µM and 0.0646 µM | TGI [7]: 0.575 µM and 0.516 µM | TGI [13]: 0.588 µM and 0.567 µM | TGI [8]: 24 µM and 30.9 µM | TGI [10]: 19.5 µM | GI50 [11]: 0.164 µM | TGI [11]: 2.94 µM and 3.41 µM

C[n+]1c2ccccc2c(CNc2ccc(S(=O)(=O)N=C(N)N)cc2)c2ccccc21
TGI [1]: 1.7 µM | TGI [2]: 32.3 µM | TGI [3]: 56.8 µM | TGI [12]: 43.4 µM | TGI [6]: 19.9 µM | TGI [7]: 34.1 µM | TGI [13]: 20.8 µM | TGI [8]: > 100 µM | TGI [10]: 23.4 µM

CC(C)=CC1C(COC(=O)c2cc3c(cc2Cl)OCO3)C1(C)C (centres undefined)
TGI [1]: > 100 µM | TGI [2]: 92.6 µM | TGI [3]: > 100 µM | TGI [4]: > 100 µM | TGI [12]: > 100 µM | TGI [5]: 53.8 µM | TGI [6]: 69.7 µM | TGI [7]: 48.9 µM | TGI [8]: > 100 µM | TGI [9]: > 100 µM | TGI [10]: > 100 µM
